From US9181234B2, “Antibacterial compounds” (priority 2010, dated 2015)
≈ marks a conversion by molar mass, not a printed value.

Legend:
[1] = test system: Staphylococcus aureus (Isolate ID ATCC 29213); experiment: Antibacterial activity, MIC, S. aureus; format: cell-based; settings: Staphylococcus aureus, ATCC29213, Gram positive strain; broth microdilution or agar dilution
Summary of the method: (§1)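 Broth microdilution or agar dilution per CLSI M7-A7; MIC read as susceptibility endpoint in liquid or solid medium.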

[2] = test system: Haemophilus influenzae (Isolate ID ATCC 49247); experiment: Antibacterial activity, MIC, H. influenzae; format: cell-based; settings: Haemophilus influenzae, ATCC49247; Gram negative strain; broth microdilution or agar dilution
Summary of the method: as §1

physchem = settings: kinetic from dmso stock
Summary of the method: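 DMSO doubling dilutions were diluted twenty-fold into 100 mM citrate (pH 4), PBS (pH 7.4) or carbonate-bicarbonate (pH 9). After 24 h equilibration at room temperature, absorbance was read at 620 nm. The reported value is the highest concentration without measurable precipitate.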

[3] = test system: Streptococcus pyogenes (Isolate ID ATCC 51339); experiment: Antibacterial activity, MIC, S. pyogenes; format: cell-based; settings: Streptococcus pyogenes, ATCC51339, Gram positive strain; broth microdilution or agar dilution
Summary of the method: as §1

[4] = test system: Enterococcus faecalis (Isolate ID ATCC 29212); experiment: Antibacterial activity, MIC, E. faecalis; format: cell-based; settings: Enterococcus faecalis, ATCC29212; Gram positive strain; broth microdilution or agar dilution
Summary of the method: as §1

[5] = pH 7.4, aqueous buffer, Max Solubility
[6] = pH 7.4, aqueous buffer, Solubility (pH 7.4)
[7] = pH 7.4, aqueous buffer, Solubility Range
[8] = pH 7.4, aqueous buffer, Solubility Range (maximum solubility)
[9] = pH 9, aqueous buffer, Max Solubility
[10] = pH 9, aqueous buffer, Solubility Range (maximum solubility)

| MIC [1] | MIC [2] | solubility at 24 h (physchem; [5]) | solubility at 24 h (physchem; [6]) | solubility at 24 h (physchem; [7]) | solubility at 24 h (physchem; [8]) | MIC [3] | MIC [4] | solubility at 24 h (physchem; [9]) | solubility at 24 h (physchem; [10]) | solubility at 24 h (physchem; pH 4, aqueous buffer, Max Solubility) | solubility at 24 h (physchem; pH 4, aqueous buffer, Solubility Range (maximum solubility)) | Compound |
| --- | --- | --- | --- | --- | --- | --- | --- | --- | --- | --- | --- | --- |
| > 16 µg/mL | > 16 µg/mL | ≥ 800 µg/mL | ≥ 800 µg/mL | > 800 µg/mL | > 800 µg/mL | 1 to 16 µg/mL (≈ 1.83 to 29.2 µM) | 1 to 16 µg/mL (≈ 1.83 to 29.2 µM) | – | – | – | – | CCNC(=O)Nc1nc2cc(-c3cnc(N4CCC(C)(C(=O)O)CC4)nc3)cc(-c3ccn(C)c(=O)c3)c2s1 [Compound 79] |
| > 16 µg/mL | 1 to 16 µg/mL (≈ 1.69 to 27 µM) | 400 µg/mL (≈ 675 µM) | 400 µg/mL (≈ 675 µM) | 400 to 800 µg/mL (≈ 675 to 1350 µM) | 400 to 800 µg/mL (≈ 675 to 1350 µM) | 1 to 16 µg/mL (≈ 1.69 to 27 µM) | 1 to 16 µg/mL (≈ 1.69 to 27 µM) | – | – | – | – | CCNC(=O)Nc1nc2cc(-c3cnc(N4CCC(C)(C(=O)O)CC4)nc3)cc(-c3cc(=O)n(CCOC)cn3)c2s1 [Compound 80] |
| ≤ 0.25 µg/mL | 0.25 to 1 µg/mL (≈ 0.457 to 1.83 µM) | – | 200 µg/mL (≈ 366 µM) | 12.5 to 400 µg/mL (≈ 22.9 to 732 µM) | – | ≤ 0.25 µg/mL | ≤ 0.25 µg/mL | ≥ 800 µg/mL | > 800 µg/mL | – | – | CCNC(=O)Nc1nc2cc(-c3cnc(N4CCC(C)(C(=O)O)CC4)nc3)cc(-c3cnc(CC)cn3)c2s1 [Compound 83] |
| ≤ 0.25 µg/mL | 0.25 to 1 µg/mL (≈ 0.455 to 1.82 µM) | – | 200 µg/mL (≈ 364 µM) | 12.5 to 400 µg/mL (≈ 22.7 to 728 µM) | – | ≤ 0.25 µg/mL | ≤ 0.25 µg/mL | ≥ 800 µg/mL | > 800 µg/mL | – | – | CCNC(=O)Nc1nc2cc(-c3cnc(N4CCC(C)(C(=O)O)CC4)nc3)cc(-c3cc(C)c(F)cn3)c2s1 [Compound 85] |
| ≤ 0.25 µg/mL | 1 to 16 µg/mL (≈ 1.82 to 29.2 µM) | ≥ 800 µg/mL | ≥ 800 µg/mL | > 800 µg/mL | > 800 µg/mL | ≤ 0.25 µg/mL | ≤ 0.25 µg/mL | – | – | – | – | CCNC(=O)Nc1nc2cc(-c3cnc(N4CCC(C)(C(=O)O)CC4)nc3)cc(-c3nccnc3OC)c2s1 [Compound 86] |
| ≤ 0.25 µg/mL | 0.25 to 1 µg/mL (≈ 0.449 to 1.8 µM) | – | 6.25 µg/mL (≈ 11.2 µM) | < 12.5 µg/mL | – | ≤ 0.25 µg/mL | ≤ 0.25 µg/mL | – | – | 12.5 µg/mL (≈ 22.5 µM) | 12.5 to 400 µg/mL (≈ 22.5 to 719 µM) | CCNC(=O)Nc1nc2cc(-c3cnc(N4CCC(C)(C(=O)O)CC4)nc3)cc(-c3cc(C)c(C#N)cn3)c2s1 [Compound 92] |

The remaining lines, values behind:

| Compound | MIC [1] | MIC [2] | solubility at 24 h (physchem; [5]) | solubility at 24 h (physchem; [6]) | solubility at 24 h (physchem; [7]) | solubility at 24 h (physchem; [8]) | MIC [3] | MIC [4] | solubility at 24 h (physchem; [9]) | solubility at 24 h (physchem; [10]) | solubility at 24 h (physchem; pH 4, aqueous buffer, Max Solubility) | solubility at 24 h (physchem; pH 4, aqueous buffer, Solubility Range (maximum solubility)) |
| --- | --- | --- | --- | --- | --- | --- | --- | --- | --- | --- | --- | --- |
| CCNC(=O)Nc1nc2cc(-c3cnc(N4CCC(C)(C(=O)O)CC4)nc3)cc(C3CCN(C(C)=O)CC3)c2s1 [Compound 74, 1-[5-[7-(1-acetyl-4-piperidyl)-2-(ethylcarbamoylamino)-1,3-benzothiazol-5-yl]pyrimidin-2-yl]-4-methyl-piperidine-4-carboxylic acid] | > 16 µg/mL | > 16 µg/mL | ≥ 800 µg/mL | ≥ 800 µg/mL | > 800 µg/mL | > 800 µg/mL | 1 to 16 µg/mL (≈ 1.77 to 28.3 µM) | 1 to 16 µg/mL (≈ 1.77 to 28.3 µM) | – | – | – | – |
| CCNC(=O)Nc1nc2cc(-c3cnc(N4CCC(C)(C(=O)O)CC4)nc3)cc(-c3cnc(N(C)C)s3)c2s1 [Compound 75] | 0.25 to 1 µg/mL (≈ 0.441 to 1.76 µM) | 1 to 16 µg/mL (≈ 1.76 to 28.2 µM) | – | 25 µg/mL (≈ 44.1 µM) | 12.5 to 400 µg/mL (≈ 22.1 to 706 µM) | – | 0.25 to 1 µg/mL (≈ 0.441 to 1.76 µM) | ≤ 0.25 µg/mL | 100 µg/mL (≈ 176 µM) | 12.5 to 400 µg/mL (≈ 22.1 to 706 µM) | – | – |
| CCNC(=O)Nc1nc2cc(-c3cnc(N4CCC(C)(C(=O)O)CC4)nc3)cc(-c3cnc(N4CCOCC4)s3)c2s1 [Compound 76] | 1 to 16 µg/mL (≈ 1.64 to 26.3 µM) | > 16 µg/mL | ≥ 800 µg/mL | ≥ 800 µg/mL | > 800 µg/mL | > 800 µg/mL | 0.25 to 1 µg/mL (≈ 0.411 to 1.64 µM) | ≤ 0.25 µg/mL | – | – | – | – |
| CCNC(=O)Nc1nc2cc(-c3cnc(N4CCC(C)(C(=O)O)CC4)nc3)cc(-c3cnc(CC)s3)c2s1 [Compound 77] | ≤ 0.25 µg/mL | 1 to 16 µg/mL (≈ 1.81 to 29 µM) | – | 200 µg/mL (≈ 363 µM) | 12.5 to 400 µg/mL (≈ 22.7 to 725 µM) | – | ≤ 0.25 µg/mL | ≤ 0.25 µg/mL | 400 µg/mL (≈ 725 µM) | 400 to 800 µg/mL (≈ 725 to 1450 µM) | – | – |
| CCNC(=O)Nc1nc2cc(-c3cnc(N4CCC(C)(C(=O)O)CC4)nc3)cc(-c3cnc(OCC)s3)c2s1 [Compound 78] | 0.25 to 1 µg/mL (≈ 0.44 to 1.76 µM) | > 16 µg/mL | – | 400 µg/mL (≈ 705 µM) | 400 to 800 µg/mL (≈ 705 to 1410 µM) | – | 0.25 to 1 µg/mL (≈ 0.44 to 1.76 µM) | ≤ 0.25 µg/mL | ≥ 800 µg/mL | > 800 µg/mL | – | – |
| CCNC(=O)Nc1nc2cc(-c3cnc(N4CCC(C)(C(=O)O)CC4)nc3)cc(-c3cncc(OC)n3)c2s1 [Compound 81] | ≤ 0.25 µg/mL | 1 to 16 µg/mL (≈ 1.82 to 29.2 µM) | – | 200 µg/mL (≈ 365 µM) | 12.5 to 400 µg/mL (≈ 22.8 to 729 µM) | – | ≤ 0.25 µg/mL | ≤ 0.25 µg/mL | 400 µg/mL (≈ 729 µM) | 400 to 800 µg/mL (≈ 729 to 1460 µM) | – | – |
| CCNC(=O)Nc1nc2cc(-c3cnc(N4CCC(C)(C(=O)O)CC4)nc3)cc(-c3ccc(CC#N)cn3)c2s1 [Compound 82] | ≤ 0.25 µg/mL | 0.25 to 1 µg/mL (≈ 0.449 to 1.8 µM) | – | 200 µg/mL (≈ 359 µM) | 12.5 to 400 µg/mL (≈ 22.5 to 719 µM) | – | ≤ 0.25 µg/mL | ≤ 0.25 µg/mL | ≥ 800 µg/mL | > 800 µg/mL | – | – |
| CCNC(=O)Nc1nc2cc(-c3cnc(N4CCC(C)(C(=O)O)CC4)nc3)cc(-c3nccnc3C)c2s1 [Compound 84] | 1 to 16 µg/mL (≈ 1.88 to 30 µM) | 1 to 16 µg/mL (≈ 1.88 to 30 µM) | – | 200 µg/mL (≈ 375 µM) | 12.5 to 400 µg/mL (≈ 23.5 to 751 µM) | – | 0.25 to 1 µg/mL (≈ 0.469 to 1.88 µM) | ≤ 0.25 µg/mL | ≥ 800 µg/mL | > 800 µg/mL | – | – |
| CCNC(=O)Nc1nc2cc(-c3cnc(N4CCC(C)(C(=O)O)CC4)nc3)cc(C3CC3)c2s1 [Compound 87, 1-{5-[7-Cyclopropyl-2-(3-ethyl-ureido)-benzothiazol-5-yl]-pyrimidin-2-yl}-4-methyl-piperidine-4-carboxylic acid] | 0.25 to 1 µg/mL (≈ 0.52 to 2.08 µM) | 1 to 16 µg/mL (≈ 2.08 to 33.3 µM) | ≥ 800 µg/mL | ≥ 800 µg/mL | > 800 µg/mL | > 800 µg/mL | 0.25 to 1 µg/mL (≈ 0.52 to 2.08 µM) | ≤ 0.25 µg/mL | – | – | – | – |
| CCNC(=O)Nc1nc2cc(-c3cnc(N4CCC(C)(C(=O)O)CC4)nc3)cc(-c3ccncc3)c2s1 [Compound 89] | 0.25 to 1 µg/mL (≈ 0.483 to 1.93 µM) | 1 to 16 µg/mL (≈ 1.93 to 30.9 µM) | ≥ 800 µg/mL | ≥ 800 µg/mL | > 800 µg/mL | > 800 µg/mL | 0.25 to 1 µg/mL (≈ 0.483 to 1.93 µM) | ≤ 0.25 µg/mL | – | – | – | – |
| CCNC(=O)Nc1nc2cc(-c3cnc(N4CCC(C)(C(=O)O)CC4)nc3)cc(-c3nccc(OC)c3C#N)c2s1 [Compound 90] | ≤ 0.25 µg/mL | 0.25 to 1 µg/mL (≈ 0.437 to 1.75 µM) | 100 µg/mL (≈ 175 µM) | 100 µg/mL (≈ 175 µM) | 12.5 to 400 µg/mL (≈ 21.8 to 699 µM) | 12.5 to 400 µg/mL (≈ 21.8 to 699 µM) | ≤ 0.25 µg/mL | ≤ 0.25 µg/mL | – | – | – | – |
| CCNC(=O)Nc1nc2cc(-c3cnc(N4CCC(C)(C(=O)O)CC4)nc3)cc(C(=O)N(C)CC)c2s1 [Compound 91, 1-[5-[2-(ethylcarbamoylamino)-7-[ethyl(methyl)carbamoyl]-1,3-benzothiazol-5-yl]pyrimidin-2-yl]-4-methyl-piperidine-4-carboxylic acid] | > 16 µg/mL | > 16 µg/mL | ≥ 800 µg/mL | ≥ 800 µg/mL | > 800 µg/mL | > 800 µg/mL | > 16 µg/mL | 1 to 16 µg/mL (≈ 1.9 to 30.4 µM) | – | – | – | – |
| CCNC(=O)Nc1nc2cc(-c3cnc(N4CCC(CC)(C(=O)O)CC4)nc3)cc(-c3cnccn3)c2s1 [Compound 99] | ≤ 0.25 µg/mL | 1 to 16 µg/mL (≈ 1.88 to 30 µM) | – | ≥ 800 µg/mL | > 800 µg/mL | – | ≤ 0.25 µg/mL | ≤ 0.25 µg/mL | – | – | – | – |
| CCNC(=O)Nc1nc2cc(-c3cnc(N4CCC(CC)(C(=O)O)CC4)nc3)cc(-c3cc(C#N)ccn3)c2s1 [Compound 100] | ≤ 0.25 µg/mL | 1 to 16 µg/mL (≈ 1.8 to 28.7 µM) | – | 12.5 µg/mL (≈ 22.5 µM) | 12.5 to 400 µg/mL (≈ 22.5 to 719 µM) | – | ≤ 0.25 µg/mL | ≤ 0.25 µg/mL | – | – | – | – |
